Test results as given in patent publication EP1100453B1, “COSMETIC FORMULATION CONTAINING ECTOINE DERIVATIVES, ENZYMES, VITAMINS AND/OR VITAMIN DERIVATIVES” (MERCK PATENT GmbH, priority 1998, dated 2000).
Read-outs that look alike come from different tables or passages of the source.

Assays:
Type in all cases: biochemical
Elastase = experiment: Enzyme stabilisation by Ectoin against temperature stress in vitro: elastase activity; conditions: 30 min incubation, Ectoin 1 mol/l, enzyme 0,05 mg/ml, Tris-HCl pH 6,8, difference to enzyme without Ectoin (set to 100 %)
Excerpt: (§1) Das Grundmedium für die Inkubation ist eine 0,25 molare Tris-HCl-Pufferlösung mit einem pH-Wert von 6,8.
(§2) Die Bestimmung der Enzymaktivität erfolgt • für Katalase nach der Methode von A. Claiborne [A. Claiborne 'Catalase Activity' in: R.A. Greenwald (Ed.), Handbook of Methods for Oxygen Radical Research, CRC Press, Boca Raton, FL. (1986) 283-284], • für Glutathionperoxidase nach der Methode von L. Flohé und W.A. Günzler [L. Flohé et al., Methods Enzymol. 105 (1989) 114-121], • für Superoxiddismutase nach der Methode von H.P. Nissen und H.W. Kreysel [H.W. Kreysel et al., 'Superoxide Dismutase in Human Semen, Klin. Wochenschr. 61 (1983) 63-65] und • für Elastase nach der Methode von L. Hornebeck und W. Hornebeck [W. Hornebeck et al., 'Characterisation of Human Skin Fibroblasts Elastase Activity', J. Invest. Dermatol. 91 (5) (1988) 472-477].
(§3) Die Ergebnisse sind für Katalase in Abb. 1, für Glutathionperoxidase in Abb. 2, für Superoxiddimutase in Abb. 3 und für Elastase in Abb. 4 dargestellt.

Glutathionperoxidase = experiment: Enzyme stabilisation by Ectoin against temperature stress in vitro: glutathione peroxidase activity; conditions: 30 min incubation, Ectoin 1 mol/l, enzyme 0,05 mg/ml, Tris-HCl pH 6,8, difference to enzyme without Ectoin (set to 100 %)
Excerpt: as §1, §2, §3

Katalase = target: T1, Katalase (Homo sapiens, UniProt P04040); experiment: Enzyme stabilisation by Ectoin against temperature stress in vitro: catalase activity; conditions: for activation at 1 M: 0.5 h, read-out: Aktivität
T1 sequence (P04040 1-527): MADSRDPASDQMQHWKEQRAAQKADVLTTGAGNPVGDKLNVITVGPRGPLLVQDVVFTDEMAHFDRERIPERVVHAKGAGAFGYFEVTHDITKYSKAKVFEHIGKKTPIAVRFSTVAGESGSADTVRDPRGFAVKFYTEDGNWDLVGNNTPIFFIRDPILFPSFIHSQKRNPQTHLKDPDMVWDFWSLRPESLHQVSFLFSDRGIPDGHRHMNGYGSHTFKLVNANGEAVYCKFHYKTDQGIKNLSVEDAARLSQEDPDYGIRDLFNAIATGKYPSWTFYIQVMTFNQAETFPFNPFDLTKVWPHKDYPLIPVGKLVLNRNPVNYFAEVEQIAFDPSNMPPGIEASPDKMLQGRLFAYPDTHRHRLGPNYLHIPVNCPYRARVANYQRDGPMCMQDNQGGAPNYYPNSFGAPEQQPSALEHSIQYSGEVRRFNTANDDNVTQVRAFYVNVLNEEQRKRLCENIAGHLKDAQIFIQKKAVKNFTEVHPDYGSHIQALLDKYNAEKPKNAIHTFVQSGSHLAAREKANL
Excerpt: as §1, §2, §3

Superoxiddismutase = experiment: Enzyme stabilisation by Ectoin against temperature stress in vitro: superoxide dismutase activity; conditions: 30 min incubation, Ectoin 1 mol/l, enzyme 0,05 mg/ml, Tris-HCl pH 6,8, difference to enzyme without Ectoin (set to 100 %)
Excerpt: as §1, §2, §3

**Q.** What does the source list for `CC1=N[C@H](C(=O)O)CCN1` [Ectoin, (S)-1,4,5,6-Tetrahydro-2-methyl-4-pyrimidincarbonsäure]?
**A.** Aktivität (Elastase; 30 °C): 4,0%; Aktivität (Elastase; 40 °C): 15,0%; Aktivität (Elastase; 50 °C): 25,7%; Aktivität (Glutathionperoxidase; 20 °C): 3,5%; Aktivität (Glutathionperoxidase; 30 °C): 1,4%; Aktivität (Glutathionperoxidase; 40 °C): 20,8%; Aktivität (Glutathionperoxidase; 50 °C): 39,6%; Aktivität von mit Ectoin behandelter Katalase relativ zu nicht mit Ectoin behandelter Katalase (Katalase; 50 °C incubation, ratio of activity with Ectoin to activity without Ectoin): mehr als doppelt so aktiv; Aktivität (Katalase; 50 °C, 30 min incubation, Ectoin 1 mol/l, enzyme 0,05 mg/ml, Tris-HCl pH 6,8, difference to enzyme without Ectoin (set to 100 %)): 117,9%; activation at 1 M (Katalase; pH 6, 20 °C, 30 min incubation, Ectoin 1 mol/l, enzyme 0,05 mg/ml, Tris-HCl pH 6,8, difference to enzyme without Ectoin (set to 100 %)): 2.5%; activation at 1 M (Katalase; pH 6, 30 °C, 30 min incubation, Ectoin 1 mol/l, enzyme 0,05 mg/ml, Tris-HCl pH 6,8, difference to enzyme without Ectoin (set to 100 %)): 10.4%; activation at 1 M (Katalase; pH 6, 40 °C, 30 min incubation, Ectoin 1 mol/l, enzyme 0,05 mg/ml, Tris-HCl pH 6,8, difference to enzyme without Ectoin (set to 100 %)): ~25%; activation at 1 M (Katalase; pH 6, 50 °C, 30 min incubation, Ectoin 1 mol/l, enzyme 0,05 mg/ml, Tris-HCl pH 6,8, difference to enzyme without Ectoin (set to 100 %)): ~120%; Aktivität (Superoxiddismutase; 20 °C): 4,9%; Aktivität (Superoxiddismutase; 40 °C): 14,4%; Aktivität (Superoxiddismutase; 50 °C): 17,4%
